Here are results for 6 molecules from ChEMBL document CHEMBL4308886, “Molecular features characterizing non-peptide selectivity to the human B1 and B2 bradykinin receptors” (Bioorg Med Chem Lett, 2019).

Holding throughout (type): cell-based
Assay [1] deals with T1, B1 bradykinin receptor (Homo sapiens) (UniProt P46663).
T1 sequence (whole entry): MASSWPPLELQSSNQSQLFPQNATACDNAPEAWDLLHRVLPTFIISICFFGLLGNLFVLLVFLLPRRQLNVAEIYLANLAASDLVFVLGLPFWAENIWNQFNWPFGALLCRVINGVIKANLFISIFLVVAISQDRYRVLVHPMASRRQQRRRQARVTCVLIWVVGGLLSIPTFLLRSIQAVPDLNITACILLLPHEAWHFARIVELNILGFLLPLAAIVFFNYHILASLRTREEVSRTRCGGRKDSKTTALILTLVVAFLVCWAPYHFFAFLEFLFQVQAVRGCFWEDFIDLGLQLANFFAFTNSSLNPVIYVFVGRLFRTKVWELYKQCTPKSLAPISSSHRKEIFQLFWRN
Briefly: Displacement of [3H][…] from human recombinant bradykinin B1 receptor expressed in CHO cells at 10 uM measured after 1 hr relative to control. A general note: In a radioligand displacement assay an active substance lowers the binding of a labelled ligand.

Assay [2] concerns the target T2, B2 bradykinin receptor (Homo sapiens) (UniProt P30411).
T2 sequence (whole entry): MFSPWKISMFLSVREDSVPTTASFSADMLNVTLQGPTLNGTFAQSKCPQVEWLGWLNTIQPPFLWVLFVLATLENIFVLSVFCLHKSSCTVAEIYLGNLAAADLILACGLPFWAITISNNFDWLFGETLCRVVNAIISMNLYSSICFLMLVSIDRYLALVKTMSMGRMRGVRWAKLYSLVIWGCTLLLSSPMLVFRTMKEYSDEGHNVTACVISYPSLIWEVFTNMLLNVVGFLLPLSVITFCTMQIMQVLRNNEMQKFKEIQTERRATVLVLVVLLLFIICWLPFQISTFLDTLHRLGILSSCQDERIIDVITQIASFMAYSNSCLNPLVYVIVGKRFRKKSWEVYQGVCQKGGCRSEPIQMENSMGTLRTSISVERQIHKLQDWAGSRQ
The assay is described as follows: Displacement of [3H]bradykinin from human recombinant bradykinin B2 receptor expressed in CHO cells at 50 uM measured after 1 hr relative to control.

For assay [3], the target named is T1, B1 bradykinin receptor (Homo sapiens). The assay is described as follows: Displacement of [3H][…] from human recombinant bradykinin B1 receptor expressed in CHO cells at 50 uM measured after 1 hr relative to control.
Assay [4] concerns the target T2, B2 bradykinin receptor (Homo sapiens). The assay is described as follows: Displacement of [3H]bradykinin from human recombinant bradykinin B2 receptor expressed in CHO cells at 10 uM measured after 1 hr relative to control.

Take `CC1CCC(N2NC(=O)/C(=C\c3cccn3-c3ccc(S(N)(=O)=O)cc3)C2=O)CC1Cl` (configuration not stated): the inhibition was 31% in assay [1] and 41% in assay [2].
Regarding `COc1cc(NCCCCCCC2CCCCN2)c2ncccc2c1` (configuration not stated), the inhibition in assay [3] stood at 31%; in assay [2], 36%.
Turning to `CC1=C(C#N)C(=O)N(CCc2c[nH]c3ccccc23)C(=O)/C1=C\Nc1ccc(S(N)(=O)=O)cc1`, the inhibition worked out at 34% in assay [4] and 32% in assay [1].
As for `COc1cc(NCCCCCCCC2CCCCN2)c2ncccc2c1` (configuration not stated), the results for the inhibition in assay [3] and in assay [2] were 46% and 65%, respectively.
Regarding `Cc1ccc(NC2=NC(=O)/C(=C/c3ccc(-c4ccc(C(=O)O)cc4)o3)S2)cc1Cl`, the results for the inhibition in assay [4] and in assay [1] were 33% and 14%, respectively.
Consider `COc1cc(NC(C)CCCN)c2nc(C)ccc2c1OC1CCC(F)CC1` (configuration not stated), for which the inhibition in assay [3] amounted to 12%; in assay [2], 45%.

A word on the inhibition: it is the percentage by which the read-out fell short of the control.
